Assay in all cases: DTP human tumour cell line panel, 48 h
In assay [1] the test system is OVCAR-5.
Assay [2] deals with HCT-15.
Assay [3] has as its system NCI-H460.
The test system of assay [4] is CCRF-CEM.
The test system of assay [5] is T47D.
Assay [6] concerns COLO 205.
Assay [7] relates to NCI-H23.
The test system of assay [8] is NCI-H522.
The subject of assay [9] is NCI/ADR-RES.
In assay [10] the test system is EKVX.
For assay [11], the system named is M14.
Assay [12] relates to SK-MEL-28.
For assay [13], the system named is LOX IMVI.
The subject of assay [14] is A549.
Assay [15] relates to HCT-116.
Assay [16] deals with MCF7.
The test system of assay [17] is HOP-62.
Assay [18] deals with NCI-H226.

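The compound was tested at five concentrations on cells cultured in 96-well plates, with a 48-hour exposure period. Here, GI50 denotes the concentration required for 50% inhibition of growth.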 Calls of active or inactive are those of the source. Rule as the data show it: active = GI50 up to about 1.1 µM and inactive = higher. Where a SMILES comes first, the peptide text is derived from it. [ ]: non-standard residue; d: D form. The star is where a group is joined. ξ: configuration not given here. ξNMe2Val = CC(C)C(C(=O)*)N(C)C; NMeV = CN[CH](C(=O)O)C(C)C; NHBn = c1ccc(CN*)cc1 A value given as a limit tells only on which side of the number the result lay.

On to `CC(=O)Oc1cc(S(=O)(=O)Nc2n[nH]c(Nc3ccc(C)cc3)n2)c(S)cc1Cl`, for which the GI50 (commonly the concentration that inhibits growth by half) in assay [1] was > 100 µM (inactive); in assay [2] it was > 100 µM; in assay [3], > 100 µM (inactive); in [4], 94.8 µM (inactive); in assay [5], > 100 µM (inactive); in assay [6], > 100 µM (inactive). Further, the GI50 was > 100 µM (inactive) in [7]; 92 µM (inactive) in [8]; > 100 µM (inactive) in [9]; > 100 µM (inactive) in assay [10]; > 100 µM (inactive) in [11]; > 100 µM (inactive) in [12]. The GI50 in assay [13], in [14] and in assay [15] was > 100 µM (inactive) in each case.
On to `O=P1(Oc2ccccc2)N=P(c2ccccc2)(c2ccccc2)C=C(c2ccc(Cl)cc2)N1` (centres undefined), for which the GI50 in assay [1] was 13.1 µM (inactive); in assay [2] it was 9.84 µM; in assay [16] it was 2.45 µM (inactive); in [17], 16.4 µM (inactive); in assay [3], 5.14 µM (inactive); in assay [4] it was 9.38 µM (inactive). Moreover, the GI50 in [5] is 5.19 µM (inactive); in [6], 5.15 µM (inactive); in [7], 15.3 µM (inactive); in assay [8] it was 10.1 µM (inactive); in assay [9], 10.9 µM (inactive); in assay [10] it was 7.89 µM (inactive). For the same molecule, the GI50 is 7.67 µM (inactive) in [11], 3.97 µM (inactive) in assay [14] and 7.23 µM (inactive) in [15].
As for `COC(=O)[C@@H]1CN(C(=O)CCc2ccccc2)C(=O)N1`, the GI50 is > 100 µM (inactive) in assay [1]; > 100 µM in [2]; > 100 µM (inactive) in [17]; 86.1 µM (inactive) in [3]; > 100 µM (inactive) in assay [4]; > 100 µM (inactive) in assay [5]. Also, the GI50 in assay [6], in [7], in [8], in assay [9], in assay [10] and in [11] was > 100 µM (inactive) in each case. Besides, the GI50 in [12], in assay [13], in [14], in assay [18] and in assay [15] was > 100 µM (inactive) each time.
As for `Cc1ccc(S(=O)(=O)Oc2nc3nc4ccccc4nc3nc2OS(=O)(=O)c2ccc(C)cc2)cc1`, the GI50 in assay [1] is > 100 µM (inactive); in assay [2], > 100 µM; in assay [16], > 100 µM (inactive); in [3] it was > 100 µM (inactive); in [4], 5.28 µM (inactive); in assay [6], > 100 µM (inactive). The GI50 in assay [7] is > 100 µM (inactive); in [8], > 100 µM (inactive); in assay [9] it was > 100 µM (inactive); in [10], 13.6 µM (inactive); in assay [11] it was > 100 µM (inactive); in [12], > 100 µM (inactive). Also, the GI50 in assay [14], in [18] and in assay [15] was > 100 µM (inactive) each time.
For the molecule `COc1ccc(N2C(=O)CSC2c2cc(OC)c(OC)c(OC)c2)cc1` (centres undefined), the GI50 was 22.3 µM (inactive) in assay [1]; 16 µM in [2]; 37.6 µM (inactive) in assay [16]; 18.9 µM (inactive) in assay [3]; 7.23 µM (inactive) in [4]; 25.4 µM (inactive) in assay [6]. In addition, the GI50 in assay [7] was 25.3 µM (inactive); in [8], 14.1 µM (inactive); in assay [9], 22.2 µM (inactive); in [10], 28.4 µM (inactive); in assay [11] it was 18.6 µM (inactive); in [12], 33.4 µM (inactive). The GI50 in [13] is 23.1 µM (inactive); in assay [14] it was 25.5 µM (inactive); in assay [18] it was 62.7 µM (inactive); in assay [15], 16.8 µM (inactive).
Consider `O=C1c2ccccc2NC(=O)C2C1C(c1ccccc1)CC2(O)c1ccccc1` (centres undefined), for which the GI50 in [1] is > 100 µM (inactive); in assay [2], 50.5 µM; in assay [16] it was > 100 µM (inactive); in assay [17] it was 79.1 µM (inactive); in assay [3], 34.7 µM (inactive); in assay [4] it was 27.7 µM (inactive). Moreover, the GI50 in assay [5] was 49.7 µM (inactive); in [6], 17.5 µM (inactive); in [7] it was 62.7 µM (inactive); in assay [9] it was 31.7 µM (inactive); in assay [10] it was > 100 µM (inactive); in assay [11] it was 60.5 µM (inactive). The GI50 in assay [12] is > 100 µM (inactive); in [13] it was 43.2 µM (inactive); in assay [14], 30 µM (inactive); in assay [15] it was 16.9 µM (inactive).
With `N#Cc1ccc(Oc2nc3ccccc3nc2C(=O)O)cc1`, the GI50 in assay [1] was > 100 µM (inactive); in assay [2] it was > 100 µM; in assay [17], > 100 µM (inactive); in [3], > 100 µM (inactive); in assay [4], > 100 µM (inactive); in [5], > 100 µM (inactive). The GI50 in assay [6], in assay [7], in assay [8], in assay [9], in assay [10] and in [11] was > 100 µM (inactive) throughout. The GI50 in assay [12], in assay [13], in assay [14], in assay [18] and in assay [15] was > 100 µM (inactive) each time.
As to `C=C(Cl)C(Br)(CBr)CCC(Br)C(C)(C)Br` (centres undefined), the GI50 in [1] was > 10 µM (inactive); in [16], 2.11 µM (inactive); in assay [17], 6.67 µM (inactive); in [4] it was 3.89 µM (inactive); in assay [6] it was 7.33 µM (inactive); in assay [7], > 10 µM (inactive). Moreover, the GI50 in assay [8] was > 10 µM (inactive); in [10], > 10 µM (inactive); in assay [11] it was > 10 µM (inactive); in [12], > 10 µM (inactive); in assay [14], 6.87 µM (inactive); in assay [18], > 10 µM (inactive). For the same molecule, the GI50 in assay [15] was 2.01 µM (inactive).
Take `Cn1c2ccccc2c(=O)c2c(O)cc3c(c21)C=CC1(CCCC1)O3`: the GI50 in [1] is 33.7 µM (inactive); in assay [2], > 100 µM; in assay [16], > 100 µM (inactive); in assay [17], 85.3 µM (inactive); in assay [3], > 100 µM (inactive); in assay [4] it was > 100 µM (inactive). The GI50 in assay [6] is > 100 µM (inactive); in assay [7], 68.1 µM (inactive); in assay [8] it was > 100 µM (inactive); in assay [9] it was > 100 µM (inactive); in assay [10], 20.8 µM (inactive); in [11], > 100 µM (inactive). In addition, the GI50 in assay [12], in [13], in assay [14], in [18] and in assay [15] was > 100 µM (inactive) each time.
Turning to `COc1cc2c(c(OC)c1OC)C(=O)c1c(O)cc(C)c(OC)c1C2=O`, the GI50 in assay [1] was > 100 µM (inactive); in assay [2] it was > 100 µM; in assay [16], > 100 µM (inactive); in [17] it was 50.7 µM (inactive); in [3], 63.1 µM (inactive); in assay [4] it was > 10 µM (inactive). The GI50 was > 100 µM (inactive) in [6]; > 100 µM (inactive) in [7]; 57.1 µM (inactive) in assay [8]; 57.1 µM (inactive) in assay [9]; 65 µM (inactive) in assay [10]; > 100 µM (inactive) in assay [11]. The GI50 in assay [12] was 37.2 µM (inactive); in assay [13], 86.3 µM (inactive); in assay [14] it was 77.3 µM (inactive); in [18], > 100 µM (inactive); in [15] it was 99.1 µM (inactive).
For `O=S(=O)(O)c1ccc2c(/N=N/c3cccc4ccccc34)c(O)ccc2c1`, the GI50 in [1] was > 100 µM (inactive); in assay [2], > 100 µM; in [17], > 100 µM (inactive); in assay [4], > 100 µM (inactive); in [5], > 100 µM (inactive); in assay [6], > 100 µM (inactive). Besides, the GI50 in [7], in assay [8], in assay [9], in [10], in assay [11] and in assay [12] was > 100 µM (inactive) each time. For the same molecule, the GI50 in assay [13], in assay [14], in assay [18] and in assay [15] was > 100 µM (inactive) throughout.
Consider `CC(C)C(NC(=O)C(C(C)C)N(C)C)C(=O)N(C)C(C(=O)N1CCCC1C(=O)N1CCCC1C(=O)NCc1ccccc1)C(C)C` (centres undefined) (ξNMe2Val-V[NMeV]PP-NHBn; configuration not given here), for which the GI50 in assay [1] is 0.0675 µM (active); in assay [2], < 0.0001 µM; in assay [17], < 0.0001 µM (active); in [3], < 0.0001 µM (active); in [4], < 0.0001 µM (active); in assay [6], < 0.0001 µM (active). The GI50 in assay [7] is < 0.0001 µM (active); in [8] it was < 0.01 µM (active); in assay [9], 0.00179 µM (active); in [10], 0.0187 µM (active); in assay [11], < 0.0001 µM (active); in [13], < 0.0001 µM (active). The GI50 in assay [14], in [18] and in assay [15] was < 0.0001 µM (active) in each case.
